Laboratory results published in article PMC9250296 (Journal of the American Chemical Society, 2021).
Numbered stars: 1 amine (or outer) side, 2 acyl side, 3 side chain; on linkers, the order of the positions; unused ones are H or OH. Bridge positions count the residues as written; N and C are the ends. Square brackets hold non-standard residues; d marks the D form. Peptide text beside a SMILES is read from it. * marks the point of attachment. X1 = O=C([C@@H]1C[C@@H](SCc2cccc(C[*:3])c2)CN1[*:1])[*:2]; X2 = C=CCS[C@@H]1C[C@@H](C(=O)[*:2])N([*:1])C1; Ac3c = NC1(C(=O)O)CC1; Allyl = C=CC*

Assays:
[1] = in vitro; conditions: human, cells or culture medium
[2] = CD thermal melts; format: physicochemical; conditions: CD thermal melt, Trp-Trp exciton coupling band at 228 nm, aqueous solution
[3] = HeLa cell lysate stability assay; conditions: for primary degradation products in HeLa cell lysate: after 24 hours, mass spectrometry; for remaining at 4 h / half-life: human

SMILES	T50 (temperature at which the peptide retains 50% structure) [2]	remaining at 4 h [3]	half-life [3]	remaining at 2 h [1]	primary degradation products in HeLa cell lysate [3]
C[C@H](NC(=O)[C@@H]1CCCN1C(=O)[C@H](CC(N)=O)NC(=O)[C@H](Cc1c[nH]c2ccccc12)NC(=O)[C@@H](NC(=O)[C@@H](N)CCCCN)[C@@H](C)O)C(=O)N[C@H](C(=O)NCC(=O)N[C@@H](CCCCN)C(=O)N[C@@H](Cc1c[nH]c2ccccc12)C(=O)N[C@H](C(=O)N[C@@H](CCC(=O)O)C(=O)O)[C@@H](C)O)[C@@H](C)O [HP7, reference compound] (H-KTWNPATGKWTE-OH; N-terminus and C-terminus assumed)	58.7 °C			~0%	
C[C@@H](O)[C@H](NC(=O)[C@H](Cc1c[nH]c2ccccc12)NC(=O)CNC(=O)[C@@H]1C[C@@H]2CN1C(=O)CNC(=O)C1(CC1)NC(=O)[C@H]1CCCN1C(=O)[C@H]([C@@H](C)O)NC(=O)[C@@H](NC(=O)[C@@H](Cc1ccc(O)cc1)NC(=O)[C@H](Cc1c[nH]c3ccccc13)NC(=O)[C@@H](NC(=O)[C@@H](N)CCCCN)[C@@H](C)O)CSCc1cccc(c1)CS2)C(=O)N[C@@H](CCC(=O)O)C(=O)O [4MP-m] (H-KTW[dY]CT[dP][Ac3c]G[X1]GWTE-OH; thioether 5-10; N-terminus and C-terminus assumed)	58.5 °C	~7%			intact except for the two N-terminal amino acids
CC(=O)N[C@H](C(=O)N[C@@H](Cc1c[nH]c2ccccc12)C(=O)N[C@H](Cc1ccc(O)cc1)C(=O)N[C@H]1CSCc2cccc(c2)CS[C@@H]2C[C@@H](C(=O)NCC(=O)N[C@@H](Cc3c[nH]c4ccccc34)C(=O)N[C@H](C(N)=O)[C@@H](C)O)N(C2)C(=O)CNC(=O)C2(CC2)NC(=O)[C@H]2CCCN2C(=O)[C@H]([C@@H](C)O)NC1=O)[C@@H](C)O [Δ4MP-m] (Ac-TW[dY]CT[dP][Ac3c]G[X1]GWT-NH2; thioether 4-9)			21 h		
CC(=O)N[C@H](C(=O)N[C@@H](Cc1c[nH]c2ccccc12)C(=O)N[C@@H](CC(N)=O)C(=O)N1CCC[C@H]1C(=O)N[C@@H](C)C(=O)N[C@H](C(=O)NCC(=O)N[C@@H](CCCCN)C(=O)N[C@@H](Cc1c[nH]c2ccccc12)C(=O)N[C@H](C(N)=O)[C@@H](C)O)[C@@H](C)O)[C@@H](C)O [ΔHP7] (Ac-TWNPATGKWT-NH2; N-terminus and C-terminus assumed)				~19%	

The next lines start with results.

T50 (temperature at which the peptide retains 50% structure) [2]	remaining at 4 h [3]	half-life [3]	SMILES	remaining at 2 h [1]	primary degradation products in HeLa cell lysate [3]
50.8 °C	~22%		C=CCSC[C@H](NC(=O)[C@@H](Cc1ccc(O)cc1)NC(=O)[C@H](Cc1c[nH]c2ccccc12)NC(=O)[C@@H](NC(=O)[C@@H](N)CCCCN)[C@@H](C)O)C(=O)N[C@H](C(=O)N1CCC[C@@H]1C(=O)NC1(C(=O)NCC(=O)N2C[C@H](SCC=C)C[C@H]2C(=O)NCC(=O)N[C@@H](Cc2c[nH]c3ccccc23)C(=O)N[C@H](C(=O)N[C@@H](CCC(=O)O)C(=O)O)[C@@H](C)O)CC1)[C@@H](C)O [4MP-a] (H-KTW[dY]C(Allyl)T[dP][Ac3c]G[X2]GWTE-OH; N-terminus and C-terminus assumed)		intact except for the two N-terminal amino acids
		30 h	C=CCSC[C@H](NC(=O)[C@@H](Cc1ccc(O)cc1)NC(=O)[C@H](Cc1c[nH]c2ccccc12)NC(=O)[C@@H](NC(C)=O)[C@@H](C)O)C(=O)N[C@H](C(=O)N1CCC[C@@H]1C(=O)NC1(C(=O)NCC(=O)N2C[C@H](SCC=C)C[C@H]2C(=O)NCC(=O)N[C@@H](Cc2c[nH]c3ccccc23)C(=O)N[C@H](C(N)=O)[C@@H](C)O)CC1)[C@@H](C)O [Δ4MP-a] (Ac-TW[dY]C(Allyl)T[dP][Ac3c]G[X2]GWT-NH2; N-terminus and C-terminus assumed)		
